The text below walks through data of patent publication US20210386709A1, “COMPOSITIONS AND METHODS FOR SUPPRESSING MSUT2” (United States Government As Represented By The Department …, priority 2020, published 2021).

The target in one series is T1, MSUT2 ZF (Homo sapiens, UniProt Q6PJT7).
T1 construct: Targeted construct consisted of the c-terminal end (dark blue and amino acids 601-736) of MSUT2; made in house; host or cells: E. coli BL21 (DE3)
T1 sequence (Q6PJT7 601-736): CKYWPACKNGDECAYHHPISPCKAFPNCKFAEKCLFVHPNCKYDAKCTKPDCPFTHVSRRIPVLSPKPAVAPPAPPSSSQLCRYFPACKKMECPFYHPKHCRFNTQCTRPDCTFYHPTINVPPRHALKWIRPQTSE
The experiment in a line: Fluorescence polarization assay of FAM-poly(A) RNA:MSUT2 ZF binding. The conditions noted are these: for Ki (nm) for MSUT2 / Ki: calculated by Cheng Prusof equation Ki=(IC50)/[(L/Kd)+1], FP dose response; for Ki: read-out: Ki (nm) for MSUT2. On the procedure: Fluorescence Polarization Assay. […] 2 μL of compound was transferred for a final concentration of 10 μM. […] Fluorescence polarization was calculated by first subtracting background from a buffer-only control well and then using the equation
Results and Discussion. A high-throughput fluorescence polarization assay for inhibition of poly(A):MSUT2 RNA interaction. […] In order to screen potential inhibitors of MSUT2 RBP and RNA by FP, fluorescent FAM (fluorescein amidite)-labeled poly(A)15 RNA (FAM-RNA) and recombinant MSUT2 ZF (zinc finger) protein expressing constructs were generated (FIG. 7a). […] Inhibition of the interaction results in unbound FAM-RNA tumbling at a relatively rapid rate and emitting non-polarized light (FIG. 7b).
(§1) To determine the concentrations of both MSUT2 ZF protein and FAM-RNA probe useful in the methods described herein, a two dimensional titration of protein and RNA concentrations in 96-well format was performed. […] Next, the binding constant between MSUT2 ZF and FAM-RNA was determined by holding FAM-RNA constant at 10 nM while increasing MSUT2 ZF concentration.
(§2) Identification and validation of MSUT2 inhibitory compounds from NIHCC library. […] IC50 of each of the previous 8 compounds was determined for PABPN1 using fluorescence polarization (FIG. 11), and a specificity ratio determined (Table 3). An Alpha Screen (AS) assay was developed as an orthogonal screen. Briefly, in this screen, biotinylated RNA binds streptavidin-coated donor beads, while GST-MSUT2 ZF binds glutathione-coated acceptor beads. When donor beads and acceptor beads are brought within close proximity of one another, laser excitation leads to fluorophore emission of the acceptor bead via excited singlet oxygen activating chemiluminescers in the acceptor beads. […] Toxicity of these compounds in a HEK cell model was determined using a standard Promega Cell Titer Glo assay.
(§3) Fluorescence Polarization Assay. […] of stock compound was transferred yielding 10 μM final concentration. […] Fluorescence polarization was calculated by first subtracting background from a buffer-only control well and then using the equation

The test system of the next series is HEK-293 cells. In words: Cell viability, Promega Cell Titer Glo. (In general: In ATP-based viability assays light output follows the ATP content of the culture.)
For series [1], the target named is T2, PABPN1 (Homo sapiens, UniProt Q86U42).
T2 construct: made in house; host or cells: E. coli BL21 (DE3)
T2 sequence (Q86U42 1-306): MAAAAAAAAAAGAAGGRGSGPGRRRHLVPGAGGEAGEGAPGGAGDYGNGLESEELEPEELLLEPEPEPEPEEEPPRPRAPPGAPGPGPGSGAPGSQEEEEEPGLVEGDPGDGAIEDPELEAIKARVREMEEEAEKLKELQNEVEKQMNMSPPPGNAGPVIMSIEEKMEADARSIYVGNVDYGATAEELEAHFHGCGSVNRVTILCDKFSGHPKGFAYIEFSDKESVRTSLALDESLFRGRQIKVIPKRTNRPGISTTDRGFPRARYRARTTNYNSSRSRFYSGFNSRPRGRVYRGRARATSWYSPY
In words: PABPN1 fluorescence polarization counter screen. The conditions noted are these: for IC50 / IC50PABPN1: fluorescence polarization counter screen; for IC50: unit inferred, read-out: IC50PABPN1; for IC50PABPN1: unit not given; for PABPN1/MSUT2 specificity ratio: ratio of FP IC50s. It counts as binding. On the procedure:
A drug repurposing strategy: screening of the NIH Clinical Collection compound library. […] The plan to find suitable lead compounds for drug repurposing began with a screen of the NIH Clinical Collection (NIHCC) library. The NIHCC consists of a diverse array of 700 compounds with historical pharmacological use and well-studied safety profiles. […] An orthogonal poly(A):MSUT2 binding assay allowed the ruling out of assay interference while selectivity against MSUT2 over PABPN1 was determined by a parallel FP assay with PABPN1 as the RBP. […] Thus, the goal was to eliminate compounds interfering with both PABN1 and MSUT2 and focus on compounds truly specific for poly(A):MSUT2 binding.
as §2, §3
In general terms: Polarisation of emitted light reports the rotation of a fluorescent probe.

The next series concerns the target T3, GST-MSUT2 (Homo sapiens, UniProt Q6PJT7).
T3 construct: Targeted construct consisted of the c-terminal end (dark blue and amino acids 601-736) of MSUT2; made in house; host or cells: E. coli BL21 (DE3)
T3 sequence (Q6PJT7 601-736): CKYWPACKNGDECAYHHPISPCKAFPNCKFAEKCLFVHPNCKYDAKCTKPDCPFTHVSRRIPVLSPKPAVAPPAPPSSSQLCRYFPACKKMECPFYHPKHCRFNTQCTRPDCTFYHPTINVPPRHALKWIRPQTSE
The experiment in a line: Alpha Screen assay of biotinylated poly(A) RNA:GST-MSUT2 binding. The conditions noted are these: orthogonal dose-response validation. The procedure: Alpha Screen Assay. Samples were set up in 384 well Perkin Elmer white opaque-bottom plates (PE06). A total reaction volume of […] was plated in 384 format using a CyBio Well Vario (6 μL of donor beads (10 μg/mL), 3 μL biotinylated RNA (250 nM), 3 μL GST-MSUT2 protein (250 nM) per well). 50 nL of compounds were transferred to wells via CyBio Vario equipped with Pin Tool. This mixture was incubated at room temperature for 30 minutes away from light. Next 3 μL of acceptor beads (1.25 μg/mL) was added. Plates were incubated at room temperature away from light for 60 minutes and subsequently read on a Perkin Elmer EnVision multimode microplate reader equipped with stackers using a standard 384-well Alpha Assay software protocol.
Results. Alpha Screen design and underlying principle. Alpha Screen technology relies on donor beads, coated with a hydrogel excitable by 680 nm, brought within close proximity to an acceptor bead leading to light emission and detection. In this assay, streptavidin coated donor beads tightly bind to biotinylated-poly(A) RNA while the glutathione-coated acceptor bead binds to GST-tagged MSUT2 protein. […] When this interaction is blocked by an inhibitor, the proximity threshold for donor and acceptor beads is not met, singlet oxygen transference cannot occur, and light is not emitted by the acceptor bead (FIG. 1a).
Identification and validation of MSUT2 inhibitory compounds from NIHCC library. The single-point primary screen was conducted in duplicate and utilized the FP assay conditions determined herein (e.g., 125 nM MSUT2 RNABP and 10 nM FAM-RNA probe) with 10 μM library compounds added in a 96-well format. […] Compound specificity was empirically tested by counter screening against PABPN1, a regulator of the length of mRNA poly(A) tails (Apponi, L. H. et al. Hum Mol Genet 19, 1058-1065, (2010); and Benoit, B. et al. Dev Cell 9, 511-522, (2005)). IC50 of each of the previous 8 compounds was determined for PABPN1 using fluorescence polarization (FIG. 11), and a specificity ratio determined (Table 3). An Alpha Screen (AS) assay was developed as an orthogonal screen. Briefly, in this screen, biotinylated RNA binds streptavidin-coated donor beads, while GST-MSUT2 ZF binds glutathione-coated acceptor beads. […] Toxicity of these compounds in a HEK cell model was determined using a standard Promega Cell Titer Glo assay.
Alpha Screen Assay. […] The plate was then incubated again at room temperature away from light for 60 minutes and subsequently read on a Perkin Elmer EnSight multimode microplate reader using a standard 96-well Alpha Assay protocol.

In series [2] the target is T4, MSUT2 ZF (ZC3H14 C-terminal CCCH zinc finger domain) (UniProt Q6PJT7 Q6PJT7:601-736).
T4 sequence: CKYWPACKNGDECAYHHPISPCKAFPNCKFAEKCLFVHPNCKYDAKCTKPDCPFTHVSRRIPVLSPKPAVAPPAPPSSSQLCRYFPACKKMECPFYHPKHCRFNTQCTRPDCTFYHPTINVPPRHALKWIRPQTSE
In words: FP; PBS, room temperature, 10 nM FAM-RNA; reported as affinity / binding constant. The conditions noted are these: tags: GST (pGEX-6P1); label: 5' FAM. On the procedure: as §1, §3

Series [3] concerns the target T5, PABPN1 (UniProt Q86U42 Q86U42:1-306).
T5 sequence: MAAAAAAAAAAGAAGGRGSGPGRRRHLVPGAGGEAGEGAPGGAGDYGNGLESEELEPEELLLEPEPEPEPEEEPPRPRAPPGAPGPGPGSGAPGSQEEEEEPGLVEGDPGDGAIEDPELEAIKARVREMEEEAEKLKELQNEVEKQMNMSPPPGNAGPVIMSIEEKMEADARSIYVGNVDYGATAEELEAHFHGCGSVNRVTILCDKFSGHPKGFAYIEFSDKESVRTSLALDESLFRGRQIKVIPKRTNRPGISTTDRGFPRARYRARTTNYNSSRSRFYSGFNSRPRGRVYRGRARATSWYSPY
In words: Alpha Screen counter-screen. The conditions noted are these: tags: GST (pGEX-6P1); label: 5' biotin.

The target in series [4] is T4, MSUT2 ZF (ZC3H14 C-terminal CCCH zinc …). In words: competition; FP competition, 10 nM FAM-RNA and 125 nM MSUT2 ZF, PBS. The conditions noted are these: tags: GST (pGEX-6P1). On the procedure:
as §1, §3

Where two headings read alike, the source gives them in different places. {FAM} = fluorescein amidite label

Consider `CNCC[C@@H](Oc1ccccc1C)c1ccccc1` [Atomoxetine], for which, at MSUT2 ZF, the “Ki (nm) for MSUT2” value was “failed dose”. On to `O=C(O)C1=CC(=C(c2ccc(O)c(C(=O)O)c2)c2ccc(O)c(C(=O)O)c2)C=CC1=O` [Aurin tricarboxylic acid], for which the “toxicity (effect on cell viability)” value in the series with HEK-293 cells (HEK-293, 72 hours, indicated concentrations) is listed as “relatively high toxicity at high concentrations”. `O=C(N[C@H](CO)[C@H](O)c1ccc([N+](=O)[O-])cc1)C(Cl)Cl` [Chloramphenicol]: the “Ki (nm) for MSUT2” value on MSUT2 ZF is given as “failed DR”. For the molecule `CC(C(=O)O)c1ccc(-c2ccccc2)c(F)c1` (centres unmarked) [Flurbiprofen], the IC50 on PABPN1 [1] was 6.57 µM. As for `CN1C2CCCC1CC(NC(=O)c1nn(C)c3ccccc13)C2` (centres unmarked) [Granisetron], the IC50PABPN1 result against PABPN1 [1] was “None”. Further, on MSUT2 ZF, the Ki was 0.534 µM. For the same molecule, the IC50 on MSUT2 ZF (read-out: IC50MSUT2) came out at 0.541 µM. Consider `OCCOCCN1CCN(C(c2ccccc2)c2ccc(Cl)cc2)CC1` (centres unmarked) [Hydroxyzine], for which, at PABPN1 [1], the IC50 came out at 23.7 µM and the PABPN1/MSUT2 specificity ratio was 40.7931. At MSUT2 ZF, the Ki was 0.573 µM.

For `CC(C)(C)NC(=O)[C@@H]1CN(Cc2cccnc2)CCN1C[C@@H](O)C[C@@H](Cc1ccccc1)C(=O)N[C@H]1c2ccccc2C[C@H]1O` [Indinavir], the figures for the IC50 on PABPN1 [1] and at MSUT2 ZF (read-out: IC50MSUT2) were 28.9 µM and 0.927 µM, respectively. The Ki at MSUT2 ZF is 0.916 µM. Turning to `CCCCN1CCCC1CNC(=O)c1cc(C#N)c2ccccc2c1OC` (centres unmarked) [Nafadotride], at PABPN1 [1], the IC50 is 67.7 µM and the PABPN1/MSUT2 specificity ratio was found to be 77.11. Further, the Ki at MSUT2 ZF was 0.867 µM. For `CC(C)(C)NC(=O)[C@@H]1C[C@@H]2CCCC[C@@H]2CN1C[C@@H](O)[C@H](Cc1ccccc1)NC(=O)[C@H](CC(N)=O)NC(=O)c1ccc2ccccc2n1` [Saquinavir], the IC50PABPN1 result against PABPN1 [1] is reported as “None”. Also, the “inhibition activity by Alpha Screen (AS)” value on GST-MSUT2 is “dose-dependent inhibition activity”. In addition, the cell viability with HEK-293 cells (HEK, highest tested dose of 4004, normalized to 2% DMSO vehicle) is on record as 65%. In addition, the Ki at MSUT2 ZF is 0.188 µM. As to `C[C@H]1CCC[C@H](O)CCCCCc2cc(O)cc(O)c2C(=O)O1` [Zeranol], the “Ki (nm) for MSUT2” value at MSUT2 ZF is “failed DR”.

Regarding “FAM-RNA: fluorescent FAM (fluorescein amidite)-labeled poly(A)15 RNA probe (SEQ ID NO: 3) (AAAAAAAAAAAAAAA; RNA, 5' {FAM}, backbone not given here)”, the Kd in the series with MSUT2 ZF (saturation assay, FAM-RNA constant at 10 nM, read-out: affinity for FAM-RNA:MSUT2 ZF interaction) worked out at 0.81 µM. Turning to “unlabeled poly(A)15 RNA: unlabeled poly(A) RNA 5′-AAAAAAAAAAAAAAA-3′ (SEQ ID NO: 2), positive control for inhibition (RNA, backbone not given here)”, the IC50 in the series with MSUT2 ZF (10 nM FAM-RNA:125 nM MSUT2 ZF, positive control, read-out: IC50 in FP competition assay) is 0.32 µM. Consider AAAAAAAAAAAAAAA (ssRNA) [FAM-poly(A)15], for which the Kd in series [2] amounted to 0.81 µM. Regarding AAAAAAAAAAAAAAA (ssRNA) [biotin-poly(A)15], the binding result in the series with PABPN1 [3] is reported as “binds”. Molecule AAAAAAAAAAAAAAA (ssRNA) [poly(A)15 unlabeled] gave an IC50 in series [4] of 0.32 µM.

One may read the Ki as a measure of affinity in units of concentration, obtained from inhibition or displacement. For orientation: cell viability means the share of living cells, or the viability signal relative to a control.
